# Test results: ChEMBL document CHEMBL1126091, “Ring substituted and other conformationally constrained tyrosine analogues of [D-Pen2,D-Pen5]enkephalin with delta opioid receptor selectivity” (J Med Chem, 1992)
# How the values were obtained:
# [1] = biological target: T1, Delta-type opioid receptor (Mus musculus, UniProt P32300); test: Compound was evaluated for […] at Opioid receptor delta 1
# [2] = biological target: T2, Delta-type opioid receptor (Rattus norvegicus, UniProt P33533); test: Compound was evaluated for the binding affinity in comparison with [3H][p-Cl-Phe4]-DPDPE (delta opioid receptor selective ligand)
# T2 sequence (P33533 whole entry): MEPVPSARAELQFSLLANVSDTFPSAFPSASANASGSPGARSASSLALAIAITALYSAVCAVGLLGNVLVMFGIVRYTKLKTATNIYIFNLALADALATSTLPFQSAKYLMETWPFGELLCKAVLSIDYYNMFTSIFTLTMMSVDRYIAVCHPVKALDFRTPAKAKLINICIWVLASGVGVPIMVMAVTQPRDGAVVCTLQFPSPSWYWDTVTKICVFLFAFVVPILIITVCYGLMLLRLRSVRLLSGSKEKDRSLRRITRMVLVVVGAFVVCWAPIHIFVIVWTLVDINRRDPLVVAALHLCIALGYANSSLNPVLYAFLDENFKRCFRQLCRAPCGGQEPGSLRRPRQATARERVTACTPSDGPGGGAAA
# [3] = biological target: T3, Mu-type opioid receptor (Rattus norvegicus, UniProt P33535); test: Compound was evaluated for its ability to displace [3H]- CTOP (mu opioid receptor selective ligand)
# T3 sequence (P33535 whole entry): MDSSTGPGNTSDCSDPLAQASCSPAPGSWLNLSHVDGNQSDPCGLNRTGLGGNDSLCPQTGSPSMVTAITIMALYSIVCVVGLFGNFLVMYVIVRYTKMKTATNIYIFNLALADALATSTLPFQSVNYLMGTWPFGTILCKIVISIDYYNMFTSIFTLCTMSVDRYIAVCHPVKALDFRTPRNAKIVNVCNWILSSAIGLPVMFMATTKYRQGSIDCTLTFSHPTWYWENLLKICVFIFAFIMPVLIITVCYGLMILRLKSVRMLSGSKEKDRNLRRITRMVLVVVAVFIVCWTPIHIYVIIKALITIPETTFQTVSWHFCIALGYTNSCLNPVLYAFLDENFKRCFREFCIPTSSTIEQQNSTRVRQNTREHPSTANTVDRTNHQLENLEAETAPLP
# [4] = biological target: T2, Delta-type opioid receptor; test: Compound was evaluated for the binding affinity in comparison with [3H][p-Cl-Phe4]-DPDPE (opioid receptor delta selective ligand)
# [5] = biological target: T3, Mu-type opioid receptor; test: Compound was evaluated for its ability to displace [3H]- CTOP (opioid receptor mu selective ligand)
# [6] = biological target: T1, Delta-type opioid receptor; test: Compound was evaluated for its inhibitory potency against opioid receptor delta of Mouse vas deferens; format: tissue-based
# [7] = biological target: Delta-type opioid receptor (Homo sapiens) (UniProt P41143); test: Compound was evaluated for the percentage of maximum inhibition at opioid receptor delta
# Chain of Delta-type opioid receptor (Homo sapiens) (P41143 whole entry): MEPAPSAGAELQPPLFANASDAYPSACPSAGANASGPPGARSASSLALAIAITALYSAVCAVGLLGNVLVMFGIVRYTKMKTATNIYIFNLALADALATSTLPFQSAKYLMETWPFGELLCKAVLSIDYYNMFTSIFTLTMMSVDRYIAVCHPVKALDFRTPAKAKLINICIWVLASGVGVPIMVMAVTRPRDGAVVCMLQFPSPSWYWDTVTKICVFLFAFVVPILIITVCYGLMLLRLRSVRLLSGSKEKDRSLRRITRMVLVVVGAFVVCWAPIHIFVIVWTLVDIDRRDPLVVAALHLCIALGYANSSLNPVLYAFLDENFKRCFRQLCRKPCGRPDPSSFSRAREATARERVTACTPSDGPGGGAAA
# [8] = biological target: T1, Delta-type opioid receptor; test: Compound was evaluated for its inhibitory potency against Opioid receptor delta 1 of Mouse vas deferens; format: tissue-based
# [9] = Macroscopic pKa value of the compound; format: physicochemical
# [10] = biological target: T2, Delta-type opioid receptor; test: Compound was evaluated for the binding affinity in comparison with [3H]- DPDPE (opioid receptor delta selective ligand)
# T1 sequence (P32300 whole entry): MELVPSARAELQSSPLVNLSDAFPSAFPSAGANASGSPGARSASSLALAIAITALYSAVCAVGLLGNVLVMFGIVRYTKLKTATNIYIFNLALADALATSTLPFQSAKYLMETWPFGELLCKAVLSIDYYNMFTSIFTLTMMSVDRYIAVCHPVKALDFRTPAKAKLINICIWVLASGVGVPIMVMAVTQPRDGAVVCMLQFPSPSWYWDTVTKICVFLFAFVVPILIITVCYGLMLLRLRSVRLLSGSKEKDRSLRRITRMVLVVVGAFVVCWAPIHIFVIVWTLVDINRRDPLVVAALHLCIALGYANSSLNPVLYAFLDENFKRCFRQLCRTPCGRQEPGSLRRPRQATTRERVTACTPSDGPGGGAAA
compound,measurement,setting,value
C[C@H](c1ccc(O)cc1)[C@H](N)C(=O)N[C@H]1C(=O)NCC(=O)N[C@@H](Cc2ccccc2)C(=O)N[C@@H](C(=O)O)C(C)(C)SSC1(C)C,IC50,[1],14.6 nM
same,IC50,[2],84.8 nM
same,IC50,[3],> 20000 nM
CC1(C)SSC(C)(C)[C@@H](NC(=O)[C@]2(N)CCC3C=C(O)C=CC3C2)C(=O)NCC(=O)N[C@@H](Cc2ccccc2)C(=O)N[C@H]1C(=O)O (stereo in doubt; 8) [listing 1 of 2 here],IC50,[4],24.5 nM
same,IC50,[5],2820 nM
same,IC50,[6],137 nM
CC1(C)SSC(C)(C)[C@@H](NC(=O)[C@]2(N)CCC3C=C(O)C=CC3C2)C(=O)NCC(=O)N[C@@H](Cc2ccccc2)C(=O)N[C@H]1C(=O)O (stereo in doubt; 9) [listing 1 of 2 here],IC50,[4],2.36 nM
same,IC50,[5],1440 nM
same,IC50,[6],22 nM
C[C@@H](c1ccc(O)cc1)[C@H](N)C(=O)N[C@H]1C(=O)NCC(=O)N[C@@H](Cc2ccccc2)C(=O)N[C@@H](C(=O)O)C(C)(C)SSC1(C)C,IC50,[1],243 nM
same,IC50,[2],440 nM
same,IC50,[3],18600 nM
CC1(C)SSC(C)(C)[C@@H](NC(=O)[C@]2(N)CCC3C=C(O)C=CC3C2)C(=O)NCC(=O)N[C@@H](Cc2ccccc2)C(=O)N[C@H]1C(=O)O (stereo in doubt; 8) [listing 2 of 2 here],Emax,[7],31%
C[C@@H](c1ccc(O)cc1)[C@@H](N)C(=O)N[C@H]1C(=O)NCC(=O)N[C@@H](Cc2ccccc2)C(=O)N[C@@H](C(=O)O)C(C)(C)SSC1(C)C,IC50,[1],698 nM
same,IC50,[2],20000 nM
same,IC50,[3],> 40000 nM
C[C@H](c1ccc(O)cc1)[C@@H](N)C(=O)N[C@H]1C(=O)NCC(=O)N[C@@H](Cc2ccccc2)C(=O)N[C@@H](C(=O)O)C(C)(C)SSC1(C)C,IC50,[8],20700 nM
same,IC50,[2],426 nM
same,IC50,[3],22800 nM
CC1(C)SSC(C)(C)[C@@H](NC(=O)[C@@H](N)Cc2ccc(O)c(I)c2)C(=O)NCC(=O)N[C@@H](Cc2ccccc2)C(=O)N[C@H]1C(=O)O,pKa,[9],8.2
CC1(C)SSC(C)(C)[C@@H](NC(=O)[C@]2(N)CCC3C=C(O)C=CC3C2)C(=O)NCC(=O)N[C@@H](Cc2ccccc2)C(=O)N[C@H]1C(=O)O (stereo in doubt; 9) [listing 2 of 2 here],Emax,[7],79%
CC1(C)SSC(C)(C)[C@@H](NC(=O)[C@@H](N)Cc2ccc(O)c(N)c2)C(=O)NCC(=O)N[C@@H](Cc2ccccc2)C(=O)N[C@H]1C(=O)O,pKa,[9],10
CC1(C)SSC(C)(C)[C@@H](NC(=O)[C@@H](N)Cc2ccc(O)c([N+](=O)[O-])c2)C(=O)NCC(=O)N[C@@H](Cc2ccccc2)C(=O)N[C@H]1C(=O)O,pKa,[9],7.2
Cc1cc(O)ccc1C[C@@H](N)C(=O)N[C@H]1C(=O)NCC(=O)N[C@@H](Cc2ccccc2)C(=O)N[C@@H](C(=O)O)C(C)(C)SSC1(C)C,IC50,[1],763 nM
same,IC50,[2],1130 nM
same,IC50,[3],16600 nM
COc1cc(C[C@H](N)C(=O)N[C@H]2C(=O)NCC(=O)N[C@@H](Cc3ccccc3)C(=O)N[C@@H](C(=O)O)C(C)(C)SSC2(C)C)ccc1O,pKa,[9],9.7
Cc1cc(O)ccc1C[C@H](N)C(=O)N[C@H]1C(=O)NCC(=O)N[C@@H](Cc2ccccc2)C(=O)N[C@@H](C(=O)O)C(C)(C)SSC1(C)C,IC50,[10],0.89 nM
same,IC50,[5],1170 nM
same,IC50,[6],4.52 nM
